This passage reports pKa and inhibition results from ChEMBL document CHEMBL1122335, “Synthesis of an N-aminopyrazinonium analogue of cytidine” (J Med Chem, 1983).

SMILES strings stand for the structures.

Series [1] can be described thus: Ionization constant of the compound. It is filed as physicochemical.
Series [2] relates to L1210. Briefly: Growth inhibition of L1210 cells in culture in the first 48 hours of exposure at a concentration of 1 x 10e-5 M. Particulars: Mus musculus, L1210, 48 h. Format: functional.
Series [3] has as its system L1210. Briefly: Growth inhibition of L1210 cells in culture in the first 48 hours of exposure at a concentration of 5 x 10e-6 M. Format: functional. Particulars: Mus musculus, L1210, 48 h.
In series [4] the test system is L1210. Briefly: Growth inhibition of L1210 cells in culture in the first 48 hours of exposure at a concentration of 5 x 10e-5 M. Format: functional. Particulars: Mus musculus, L1210, 48 h.

Consider `Nn1ccn([C@@H]2O[C@H](CO)[C@@H](O)[C@H]2O)c(=O)c1=O`, for which the pKa (usually the pH at which an ionisable group is half protonated) in series [1] stood at 8.8. Besides, in the series on L1210 [2], the inhibition – broadly, the share of the control response that was lost under treatment – at 10 µM was 20%. Further, testing at 5 µM in the series with L1210 [3] gave an inhibition of 15%. The inhibition at 50 µM in the series with L1210 [4] was 25%.
